“Also recorded” adds a separate entry of the source. Where two headings read alike, the source gives them in different places.
How the values were obtained:
AasS [1] = biological target: T1, AasS (Vibrio harveyi, UniProt Q00IB3); assay: Microscale thermophoresis (MST), wild-type AasS; format: binding; conditions: AasS 40 nM; C10/ATP mixture 0.15 nM to 5.0 μM
Description: (§1) To validate poor binding of AasS(D411A) to C10 fatty acyl adenylate observed in our ITC assays, the relatively-more sensitive approach of microscale thermophoresis (MST) was additionally applied here as Jerabek-Willemsen et al. described with minor alteration. Using the Protein Labeling Kit (Protein Labeling Kit RED-NHS 2nd Generation, Nano Temper Technology), both the wild-type AasS and its D411A mutant were fluorescently labelled in the MST buffer (150 mM NaCl, 25 mM Tris-HCl, 3 mM MgCl2, 0.05% Tween-20, pH 8.0). The ligand C10-AMP used in MST assays was prepared by an equal mixture of C10 and ATP. In general, an NT.115 Monolith instrument (Nano Temper Technology, Germany) was integrated, of which the routine parameters included a RED/LED (20%) excitation power along with 60% laser power for excitation. Then, the protein samples were siphoned into MST Premium Coated capillaries for the determination of binding affinity at room temperature. The final concentrations of different AasS samples were 40 nM for WT, and 180 nM for D411A, respectively. The mixture of C10/ATP was diluted in a gradient (from 0.15 nM to 5.0 μM). Three independent MST experiments were conducted here. The dissociation constants (Kd) were calculated using the software MO. Affinity Analysis v2.3. Of note, this was largely dependent on the KD model with a 1:1 stoichiometry per binding partner.

AasS [2] = biological target: T1, AasS; assay: Isothermal titration calorimetry (ITC), wild-type AasS; format: binding; conditions: for binding to AasS in ITC: negative controls
Description: The assays of Isothermal titration calorimetry (ITC) were conducted to address the stoichiometry of AasS binding to its C10-AMS inhibitor and C10-AMP intermediate. Since both malic acid and pimelic acid are not substrates for AasS, the two dicarboxylic acids were assumed as negative controls in our ITC analysis. Using a micro-calorimeter (MicroCal PEAQ-ITC) as recently described for E-C7 with little change, totally 18 titrations (2 μl each at an internal of 2.5 min) proceeded in the cell at room temperature. Prior to the titration, AasS protein (~40 μM) was saturated with its ATP cofactor (120 μM) in the cell, and C10-AMS inhibitor (or C10) was kept at 600 μM in the syringe. The titration buffer was composed of 150 mM NaCl, 25 mM Tris-HCl (pH8.0), 2 mM DTT, and 3 mM MgCl2. One set of site model by the MicroCal PEAQ-ITC software enabled plotting the titration curves. Next, the stoichiometry (N) and dissociation constant (Kd) were calculated. It was given as an average ± standard deviation (SD) from three independent trials.

AasS(D411A) = assay: Microscale thermophoresis (MST), AasS(D411A) mutant; format: binding, Vibrio harveyi; conditions: D411A 180 nM; C10/ATP mixture 0.15 nM to 5.0 μM
Description: as §1

AasS [3] = assay: In vitro enzymatic activity of AasS (acyl-ACP formation, conformationally-sensitive urea PAGE, ImageJ semi-quantitation); format: biochemical, Vibrio harveyi; conditions: for activity as substrate of AasS in vitro (ligation with holo-ACP): urea gel; for C10-ACP conversion from C10 substrate, Average: AasS 3 nM, fig. 2E
[4] = system: AasS-expressing E. coli ΔbioC strain; assay: AasS-based bypass of biotin synthesis, bacterial viability on M9 agar; format: cell-based, Escherichia coli; conditions: biotin-deficient M9 medium
Description: Fig 4 Integrated evidence for the inhibition of AasS action with E-C7 fatty acid by C10-AMS compound. A. Schematic diagram of AasS-catalyzed ligation of E-C7 with holo-ACP recipient to produce E-C7-ACP. […] A representative photograph of three independent trials was given. C. Relatively-quantitative analysis (for the inhibitory efficacy of C10-AMS on AasS-catalyzed E-C7-ACP production. As for AasS reaction (panel B), unlike the three components that are at constant levels, namely (i) AasS (31.25 nM), (ii) E-C7 (600 μM), and (iii) ACP (3 μg), C10-AMS inhibitor was supplemented at varied ratio in relative to the AasS enzyme (ranging from 0:1, 25:1, 50:1, 100:1, 200:1, 300:1, 400:1, to 500:1). The ImageJ software was applied to measure the relative percentage (%) of E-C7 fatty acylation in each AasS reaction. The resultant graphs were plotted from three independent experiments, in which the output was expressed as means ± SD (standard deviations). D. Schematic diagram for C10-AMS inhibition of AasS-based bypass of biotin requirement by the E. coli ΔbioC biotin auxotroph on the non-permissive condition. […] Log-phase cultures in a series of 10-fold dilution (shown in panel on right hand), were spotted on the x-gal-containing M9 agar plates supplemented with C10-AMS inhibitor at varied levels (0, 50, 100, to 500 μM). The addition of x-gal substrate enabled the occurrence of blue colonies for better photographing, and viable colonies were highlighted with yellow arrows.
Given that AasS ligates E-C7 fatty acid with holo-ACP, giving E-C7-ACP, an alternative precursor for bacterial biotin synthesis, plasmid-borne aasS expression in ΔbioC biotin auxotroph strain is assumed to overcome the requirement of the primary BioC step [58, 83]. Apart from its WT, three single mutants of AasS (D411A, R426A, and K432A) were examined in vivo, of which the compromised activity is presumably proportional to the varied viability of the ΔbioC reporter strains on the non-permissive M9 growth condition. To test its inhibitory effect, the C10-AMS inhibitor in a series of dilution was supplemented. […]

AasS (D411A) = assay: Isothermal titration calorimetry (ITC), AasS (D411A) mutant; format: binding, Vibrio harveyi
Description: Fig 7 Parallels in binding of AasS to the C10-AMP adenylate intermediate and the C10-AMS inhibitor. Structural visualization for AasS binding an intermediate C10-AMP adenylate (A) and its inhibitor C10-AMS (B). […] C. […] Both AasS enzymatic reaction and conformationally-sensitive gel separation were conducted as described in Fig 2D and 2F. D. In vivo evidence that the three single mutants of AasS (D411A, R426A, and K432A) lose the ability to bypass the physiological requirement of biotin for the bioC isogenic mutant of E. coli on the non-permissive condition. The bacterial viability on M9 defined agar medium was determined as performed in Fig 4E. […] The ITC assays were carried out as we conducted in Fig 3B.
The assays of Isothermal titration calorimetry (ITC) were conducted to address the stoichiometry of AasS binding to its C10-AMS inhibitor and C10-AMP intermediate. Since both malic acid and pimelic acid are not substrates for AasS, the two dicarboxylic acids were assumed as negative controls in our ITC analysis. Using a micro-calorimeter (MicroCal PEAQ-ITC) as recently described for E-C7 with little change, totally 18 titrations (2 μl each at an internal of 2.5 min) proceeded in the cell at room temperature. […] Next, the stoichiometry (N) and dissociation constant (Kd) were calculated. […]

[5] = system: MenE, an o-succinylbenzoyl-CoA synthetase; conditions: cited from earlier work
AasS [6] = biological target: T1, AasS; set-up: method as in PMID 39794554; conditions: cited from earlier work

T1 sequence (Q00IB3 entry or part of it): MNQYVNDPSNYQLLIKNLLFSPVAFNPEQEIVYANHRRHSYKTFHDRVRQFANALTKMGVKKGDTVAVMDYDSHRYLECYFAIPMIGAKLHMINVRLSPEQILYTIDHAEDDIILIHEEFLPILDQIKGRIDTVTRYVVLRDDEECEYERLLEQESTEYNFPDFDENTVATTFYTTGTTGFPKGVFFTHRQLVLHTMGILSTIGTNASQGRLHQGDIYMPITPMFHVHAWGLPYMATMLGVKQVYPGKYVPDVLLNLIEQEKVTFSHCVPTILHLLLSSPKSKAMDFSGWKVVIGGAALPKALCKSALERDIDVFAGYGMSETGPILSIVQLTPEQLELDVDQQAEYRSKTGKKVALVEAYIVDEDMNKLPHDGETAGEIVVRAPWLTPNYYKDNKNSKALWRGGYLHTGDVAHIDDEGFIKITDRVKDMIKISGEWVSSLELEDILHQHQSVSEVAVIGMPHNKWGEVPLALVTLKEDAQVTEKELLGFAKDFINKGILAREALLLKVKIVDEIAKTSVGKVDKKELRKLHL

For `CCCCCCCCCC(=O)OP(=O)(O)OCC1OC(n2cnc3c(N)ncnc32)C(O)C1O` (centres unmarked) [C10-AMP, decanoyl-adenylate], the “binding by wild-type AasS in MST” value (AasS [1]) was “efficient binding”, the “stoichiometry (n)” value (AasS [2]; AasS ~40 μM saturated with ATP 120 μM) was 0.77 ± 0.04 and the Kd (AasS [2]; AasS ~40 μM saturated with ATP 120 μM, ligand 600 μM in syringe, room temperature, read-out: dissociation constant (Kd)) was 64.4 ± 5.2 nM. For the same compound, the “binding by AasS(D411A) in MST” value (AasS(D411A)) was “lose its ability of binding”.

In the case of `O=C(O)CC(O)C(=O)O` (centres unmarked) [malic acid], the “activity as substrate of AasS in vitro (ligation with holo-ACP)” value (AasS [3]) is reported as “inactive”, the “binding to AasS in ITC” value (AasS [2]) is reported as “none of the two dicarboxylic acids; also recorded: without an ability of binding” and the “support of AasS-based biotin bypass as sole carbon source” value [4] is reported as “loss of function in supporting bacterial viability; also recorded: cannot bypass biotin requirement”.

For `CCCCCCCCCC(=O)O` [C10, decanoic acid], the “C10-ACP conversion from C10 substrate, Average” value (“C10-ACP conversion” for short) (AasS [3]; C10 6 μM) was 46.1519, the “C10-ACP conversion” value (AasS [3]; C10 12 μM) was 68.3859 and the “C10-ACP conversion” value (AasS [3]; C10 24 μM) was 90.5892. For the same compound, the “C10-ACP conversion” value (AasS [3]; C10 60 μM) was 89.8102, the “C10-ACP conversion” value (AasS [3]; C10 120 μM) was 91.2632 and the “C10-ACP conversion” value (AasS [3]; C10 180 μM) was 91.9374. For the same compound, the “C10-ACP conversion” value (AasS [3]; C10 240 μM) was 91.9685, the Kd (AasS [2]) was 54.4 ± 5.1 nM and the “binding to AasS (D411A) in ITC (words)” value (AasS (D411A)) was “fails to effectively bind”. The “binding to AasS (D411A) in ITC (words)” value (AasS (D411A); listed as decanoic acid) was “does not”.

In the case of `Nc1ncnc2c1ncn2[C@@H]1O[C@H](COS(=O)(=O)NC(=O)CCC(=O)c2ccccc2C(=O)O)[C@@H](O)[C@H]1O` [OSB-AMS], the “mode of inhibition of MenE” value [5] is given as “mixed-type inhibitor”.

For `CCOC(=O)CCCCCC(=O)O` [E-C7, mono-ethyl pimelic acid], the “binding affinity to AasS” value (AasS [6]) is listed as “mild affinity”.

With `O=C(O)CCCCCC(=O)O` [pimelic acid] the “activity as substrate of AasS in vitro (ligation with holo-ACP)” value (AasS [3]) was “inactive”, the “binding to AasS in ITC” value (AasS [2]) was “no binding” and the “binding to AasS in ITC” value (AasS [2]; listed as pimelate) was “none of the two dicarboxylic acids”. The “support of AasS-based biotin bypass as sole carbon source” value [4] was “loss of function in supporting bacterial viability; also recorded: Failure of AasS-based biotin bypass”.

From publication PMC11271967, “An inhibitory mechanism of AasS, an exogenous fatty acid scavenger: Implications for re-sensitization of FAS II antimicrobials” (PLOS Pathogens, 2024)
